molecular target: T1, IRAK4 (Homo sapiens, UniProt Q9NWZ3); assay: IRAK4 MSD Degradation in OCI-LY10; assay type: cell-based; conditions: OCI-LY10 cells, 4 hrs incubation, read-out: IRAK4 degradation in OCI-LY10 at 4 hrs: DC50
T1 construct: endogenous in cells; host or cells: OCI-LY10
T1 sequence (Q9NWZ3 1-460): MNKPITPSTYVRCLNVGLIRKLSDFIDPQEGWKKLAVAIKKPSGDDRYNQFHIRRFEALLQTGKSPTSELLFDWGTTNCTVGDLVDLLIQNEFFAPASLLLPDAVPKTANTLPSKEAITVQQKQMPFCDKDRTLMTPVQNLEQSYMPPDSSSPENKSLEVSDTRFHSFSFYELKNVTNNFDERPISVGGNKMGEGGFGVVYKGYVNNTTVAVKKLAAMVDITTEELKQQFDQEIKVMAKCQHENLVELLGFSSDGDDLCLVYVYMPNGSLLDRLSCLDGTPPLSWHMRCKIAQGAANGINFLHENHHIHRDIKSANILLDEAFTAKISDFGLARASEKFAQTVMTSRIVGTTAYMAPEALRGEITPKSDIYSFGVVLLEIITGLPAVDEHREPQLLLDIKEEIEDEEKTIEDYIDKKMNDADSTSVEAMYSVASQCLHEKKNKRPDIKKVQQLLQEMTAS
Description: Degradation of IRAK4 in OCI-LY10 was quantitatively measured using Meso Scale Discovery technology. […] Compounds were then added to the assay plates with a final top concentration of 1 to 10 μM in a 1:3 dilution series with total of 8 doses. The assay plates were then incubated for 4 to 24 hours at 37° C. under 5% C02. […] To prepare MSD assay plates (Meso Scale Discovery Catalog number L15XA-3), the plates were coated with […] capture antibody (mouse Anti-IRAK4 antibody [2H9], ab119942) in PBS, at 40 μL/well. […] Cell lysates were then added to MSD assay plates and the plates were incubated at room temperature for 1 hour. The plates were then washed 3 times with 150 μL/well TBST buffer and 25 μL/well primary detection antibody (rabbit Anti-IRAK4 antibody [Y279], from Abcam. Catalog number ab32511, 1 μg/mL). The assay plates were then incubated at room temperature for 1 hour, washed 3 times with 150 μL/well TBST buffer and 25 μL/well secondary detection antibody, SULFO-TAG anti-rabbit antibody were added (anti rabbit antibody from Meso Scale Discovery, Catalog number R32AB-1, 1 μg/mL). The assay plates were then incubated at room temperature for 1 hour, washed 3 times with 150 μL/well TBST buffer, and 150 μL/well MSD reading buffer (Meso Scale Discovery catalog number R92TC-2) was added. The plates were then analyzed by a MSD reader (Meso Scale Discovery, Model Quick Plex SQ 120). The data was then analyzed by software Prism 7.0 from GraphPad and the dose-depended IRAK4 degradation were fit using a three-parameter logistic equation to calculate DC50.
The letter codes for IRAK4 […] include: A (<0.05 μM); B (0.05-0.1 μM); C (0.1-0.5 μM); D (0.5-1.0 μM); and E (>1.0 μM).

DC50 [nM] | SMILES
< 50 | Cn1c(=O)n(C2CCC(=O)NC2=O)c2cccc([C@H]3CC[C@H](N(C)C[C@H]4CC[C@H](n5cc6cc(NC(=O)c7cccc(C(F)(F)F)n7)c(C(F)F)cc6n5)CC4)CC3)c21 (single isomer, unassigned) [I-164, N-[6-(difluoromethyl)-2-[4-[[[4-[1-(2,6-dioxo-3-piperidyl)-3-methyl-2-oxo-benzimidazol-4-yl]cyclohexyl]-methyl-amino]methyl]cyclohexyl]indazol-5-yl]-6-(trifluoromethyl)pyridine-2-carboxamide]
50 to 100 | COc1cc2nn([C@H]3CC[C@H](CN4CCN(c5cccc6c5n(C)c(=O)n6C5CCC(=O)NC5=O)CC4)CC3)cc2cc1NC(=O)c1cccc(C(C)(C)F)n1 (stereo partly shown) [I-167]
< 50 | Cn1c(=O)n(C2CCC(=O)NC2=O)c2cccc([C@H]3CC[C@H](N(C)C[C@H]4CC[C@H](n5cc6cc(NC(=O)c7cccc(C(F)(F)F)n7)c(C(C)(C)O)cc6n5)CC4)CC3)c21 (single isomer, unassigned) [I-175, N-[2-[4-[[[4-[1-(2,6-dioxo-3-piperidyl)-3-methyl-2-oxo-benzimidazol-4-yl]cyclohexyl]-methyl-amino]methyl]cyclohexyl]-6-(1-hydroxy-1-methyl-ethyl)indazol-5-yl]-6-(trifluoromethyl)pyridine-2-carboxamide]
< 50 | Cn1c(=O)n(C2CCC(=O)NC2=O)c2cccc(N3CCN(C[C@H]4CC[C@H](n5cc6cc(NC(=O)c7cccc(C(F)(F)F)n7)c(C(C)(C)O)cc6n5)CC4)CC3)c21 (stereo partly shown) [I-172]
< 50 | Cn1c(=O)n(C2CCC(=O)NC2=O)c2cccc(C[C@H]3CC[C@H](N(C)C[C@H]4CC[C@H](n5cc6cc(NC(=O)c7cccc(C(F)(F)F)n7)c(C(C)(C)O)cc6n5)CC4)CC3)c21 (stereo partly shown) [I-62]
< 50 | Cn1c(=O)n(C2CCC(=O)NC2=O)c2cccc(CCN3CCN(C[C@H]4CC[C@H](n5cc6cc(NC(=O)c7cccc(C(F)(F)F)n7)c(C(C)(C)O)cc6n5)CC4)CC3)c21 (stereo partly shown) [I-146]
50 to 100 | Cn1c(=O)n(C2CCC(=O)NC2=O)c2cccc(N3CCN(C[C@H]4CC[C@H](n5cc6cc(NC(=O)c7cccc(C(F)(F)F)n7)c(OC(F)(F)F)cc6n5)CC4)CC3)c21 (stereo partly shown) [I-169]
50 to 100 | Cn1c(=O)n(C2CCC(=O)NC2=O)c2cccc(CN3CC4(C3)CN(C(=O)[C@H]3CC[C@H](n5cc6cc(NC(=O)c7cccc(C(F)(F)F)n7)c(C(C)(C)O)cc6n5)CC3)C4)c21 (stereo partly shown) [I-45, N-[2-[4-[6-[[1-(2,6-dioxo-3-piperidyl)-3-methyl-2-oxo-benzimidazol-4-yl]methyl]-2,6-diazaspiro[3.3]heptane-2-carbonyl]cyclohexyl]-6-(1-hydroxy-1-methyl-ethyl)indazol-5-yl]-6-(trifluoromethyl)pyridine-2-carboxamide]
< 50 | COc1cc2nn([C@H]3CC[C@H](CN4CCC(CCCc5cccc6c5n(C)c(=O)n6C5CCC(=O)NC5=O)CC4)CC3)cc2cc1NC(=O)c1cnn2cccnc12 (stereo partly shown) [I-158]
< 50 | Cn1c(=O)n(C2CCC(=O)NC2=O)c2cccc(CC3CCN(C[C@H]4CC[C@H](n5cc6cc(NC(=O)c7cccc(C(F)(F)F)n7)c(C(C)(C)O)cc6n5)CC4)CC3)c21 (stereo partly shown) [I-229]
50 to 100 | Cn1c(=O)n(C2CCC(=O)NC2=O)c2cccc(C3CCN(C[C@H]4CC[C@H](n5cc6cc(NC(=O)c7cccc(C(C)(C)F)n7)c(C(F)F)cc6n5)CC4)CC3)c21 (stereo partly shown) [I-103]
< 50 | Cn1c(=O)n(C2CCC(=O)NC2=O)c2ccc(C3CN(C[C@H]4CC[C@H](n5cc6cc(NC(=O)c7cccc(C(F)(F)F)n7)c(C(F)F)cc6n5)CC4)C3)cc21 (stereo partly shown) [I-264]
< 50 | Cn1c(=O)n(C2CCC(=O)NC2=O)c2cccc(C3CCN(C[C@H]4CC[C@H](n5cc6cc(NC(=O)c7cccc(C(F)(F)F)n7)c(C(C)(C)O)cc6n5)CC4)CC3)c21 (stereo partly shown) [I-226]
< 50 | COc1cc2nn([C@H]3CC[C@H](CN4CCC(c5cccc6c5n(C)c(=O)n6C5CCC(=O)NC5=O)CC4)CC3)cc2cc1NC(=O)c1ccncn1 (stereo partly shown) [I-324]

same assay, conditions: OCI-LY10 cells, 24 hrs incubation, read-out: IRAK4 degradation in OCI-LY10 at 24 hrs: DC50

DC50 [nM] | SMILES
< 50 | COc1cc2nn([C@H]3CC[C@H](CN4CC5(CC(CCNc6cccc7c6C(=O)N([C@H]6CCC(=O)NC6=O)C7=O)C5)C4)CC3)cc2cc1NC(=O)c1cccc(C(C)(F)F)n1 [I-255, 6-(1,1-Difluoroethyl)-N-[2-[4-[[6-[2-[[2-[(3S)-2,6-dioxo-3-piperidyl]-1,3-dioxo-isoindolin-4-yl]amino]ethyl]-2-azaspiro[3.3]heptan-2-yl]methyl]cyclohexyl]-6-methoxy-indazol-5-yl]pyridine-2-carboxamide]
50 to 100 | COc1cc2nn([C@H]3CC[C@H](CN4CCC5(CC4)CC(CNc4cccc6c4C(=O)N(C4CCC(=O)NC4=O)C6=O)C5)CC3)cc2cc1NC(=O)c1cccc(C(C)(C)F)n1 (stereo partly shown) [I-232]
100 to 500 | O=C1CCC(N2C(=O)c3cccc(NCCC4CC5(CCN(C[C@H]6CC[C@H](c7nc8cc(N9CCC(CO)CC9)c(NC(=O)c9cccc(C(F)(F)F)n9)cc8o7)CC6)CC5)C4)c3C2=O)C(=O)N1 (stereo partly shown) [I-314]
50 to 100 | COc1cc2nn([C@H]3CC[C@H](CN(C)[C@H]4CC[C@H](Nc5cccc6c5C(=O)N(C5CCC(=O)NC5=O)C6=O)CC4)CC3)cc2cc1NC(=O)c1cccc(S(F)(F)(F)(F)F)n1 (stereo partly shown) [I-318]
50 to 100 | Cc1nc(C(=O)Nc2cc3cn([C@H]4CC[C@H](CN(C)[C@H]5CC[C@H](CNc6cccc7c6C(=O)N(C6CCC(=O)NC6=O)C7=O)CC5)CC4)nc3cc2C(C)(C)O)ccc1F (stereo partly shown) [I-308]
100 to 500 | CCOc1cc2nn([C@H]3CC[C@H](CN4CCC5(CC4)CC(CCNc4cccc6c4C(=O)N(C4CCC(=O)NC4=O)C6=O)C5)CC3)cc2cc1NC(=O)c1cccc(C(F)(F)F)n1 (stereo partly shown) [I-212]
100 to 500 | COc1cc2nn([C@H]3CC[C@H](CN(C)[C@H]4CC[C@H](CNc5cccc6c5C(=O)N(C5CCC(=O)NC5=O)C6=O)CC4)CC3)cc2cc1NC(=O)c1cccc(C(C)(C)F)n1 (stereo partly shown) [I-90]
< 50 | COc1cc2nn([C@H]3CC[C@H](CN4CCC5(CC4)CC(CNc4cccc6c4C(=O)N(C4CCC(=O)NC4=O)C6=O)C5)CC3)cc2cc1NC(=O)c1cccc(C(F)F)n1 (stereo partly shown) [I-209]
50 to 100 | COc1cc2nn([C@H]3CC[C@H](CN4CCC5(CC4)CC(CCNc4cccc6c4C(=O)N(C4CCC(=O)NC4=O)C6=O)C5)CC3)c(C)c2cc1NC(=O)c1cccc(C(F)(F)F)n1 (stereo partly shown) [I-136]
50 to 100 | COc1cc2nn([C@H]3CC[C@H](CN(C)CCCO[C@H]4C[C@H](Nc5cccc6c5C(=O)N(C5CCC(=O)NC5=O)C6=O)C4)CC3)cc2cc1NC(=O)c1cccc(C(F)(F)F)n1 (stereo partly shown) [I-230]
50 to 100 | CC(C)(O)COc1cc2nn([C@H]3CC[C@H](CN4CCC5(CC4)CC(CCNc4cccc6c4C(=O)N(C4CCC(=O)NC4=O)C6=O)C5)CC3)cc2cc1NC(=O)c1cccc(C(C)(F)F)n1 (stereo partly shown) [I-119]
50 to 100 | COc1cc2nn(C3CCC(CN4CC5(CCC(CNc6cccc7c6C(=O)N(C6CCC(=O)NC6=O)C7=O)CC5)C4)CC3)cc2cc1NC(=O)c1cccc(C(C)(F)F)n1 (stereo not shown) [I-122]
500 to 1000 | C[C@]1(CN2CCC3(CC2)CC(CCNc2cccc4c2C(=O)N(C2CCC(=O)NC2=O)C4=O)C3)Cc2cc(NC(=O)c3cccc(C(F)(F)F)n3)c(N3CCOCC3)cc2O1 (stereo partly drawn) [I-326, N-[(2R)-2-[[2-[2-[[2-(2,6-dioxo-3-piperidyl)-1,3-dioxo-isoindolin-4-yl]amino]ethyl]-7-azaspiro[3.5]nonan-7-yl]methyl]-2-methyl-6-morpholino-3H-benzofuran-5-yl]-6-(trifluoromethyl)pyridine-2-carboxamide]
50 to 100 | CC(C)(O)c1cc2nn([C@H]3CC[C@H](CN4CCC5(CC4)CC(CCNc4cccc6c4C(=O)N(C4CCC(=O)NC4=O)C6=O)C5)CC3)cc2cc1NC(=O)c1cccc(C(C)(F)F)n1 (stereo partly shown) [I-250]
50 to 100 | COc1cc2nn([C@H]3CC[C@H](CN4CCC(O[C@H]5CC[C@H](CNc6cccc7c6C(=O)N(C6CCC(=O)NC6=O)C7=O)CC5)CC4)CC3)cc2cc1NC(=O)c1cccc(C(F)(F)F)n1 (stereo partly shown) [I-69]
50 to 100 | COc1cc2nn([C@H]3CC[C@H](CN4CCC5(CC4)CC(CNc4cccc6c4C(=O)N(C4CCC(=O)NC4=O)C6=O)C5)CC3)cc2cc1NC(=O)c1ccccn1 (stereo partly shown) [I-273]
50 to 100 | COc1cc2nn([C@H]3CC[C@H](CN(C)CCCN4CCOC(CNc5cccc6c5C(=O)N(C5CCC(=O)NC5=O)C6=O)C4)CC3)cc2cc1NC(=O)c1cccc(C(C)(F)F)n1 (stereo partly shown) [I-91]

Reference: patent US12545659B2, “IRAK degraders and uses thereof” (Kymera Therapeutics, Inc., priority 2019, dated 2026)
